{"source": "patent US20200207989A1", "about": "“FLUORESCENT PROBE FOR ALDH3A1 DETECTION” (The University of Tokyo, priority 2016, published 2020)", "key": {"ALDH1A3": {"target": "T1, ALDH1A3 (Homo sapiens, UniProt P47895)", "T1 construct": "purchased", "T1 sequence (P47895 1-512)": "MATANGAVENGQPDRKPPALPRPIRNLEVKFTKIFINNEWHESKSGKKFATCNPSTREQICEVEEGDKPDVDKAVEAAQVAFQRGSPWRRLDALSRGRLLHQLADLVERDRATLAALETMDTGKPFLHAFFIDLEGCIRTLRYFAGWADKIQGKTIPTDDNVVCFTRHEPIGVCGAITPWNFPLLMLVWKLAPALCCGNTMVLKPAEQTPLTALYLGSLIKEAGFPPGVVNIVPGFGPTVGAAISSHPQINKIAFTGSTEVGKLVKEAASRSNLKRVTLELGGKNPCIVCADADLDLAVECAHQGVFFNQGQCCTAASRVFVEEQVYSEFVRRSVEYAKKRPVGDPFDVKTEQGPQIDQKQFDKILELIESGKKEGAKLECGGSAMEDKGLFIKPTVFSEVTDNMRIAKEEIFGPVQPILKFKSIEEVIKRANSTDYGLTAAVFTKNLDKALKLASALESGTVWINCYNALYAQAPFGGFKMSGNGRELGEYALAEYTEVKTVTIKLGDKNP", "assay": "Kinetic characteristics (Michaelis-Menten Km, Kcat) with ALDH1A3", "type": "biochemical", "conditions": "five minutes at 37° C., Tris buffer pH 7.5", "experimental": "(§1) Human recombinant ALDH1A1/1A3/3A1 was purchased, and 100 mM of KCL, 2 mM of DTT, 1 mM of NAD(P), 10-100 nM of each ALDH, and 10-80 μM of each compound were mixed in Tris buffer (100 mM, pH 7.5), reacted for 30 minutes at 37° C., an equal amount of acetonitrile added, and the reaction stopped. The reaction solution was analyzed by UPLC/MS/MS (Waters). The UPCL chromatogram was carried out over five minutes at a flow rate of 800 μL/min by a linear gradient from 5% acetonitrile 0.01 M ammonium formate/water to 95% acetonitrile 0.01 M ammonium formate/water. An aldehyde-form and carboxylic acid-form probe were detected by the absorbance at a wavelength of 504 nm, and m/z of the MS spectrum at each peak was confirmed to agree with the expected m/z.\nFor the reaction, 100 mM of KCL, 2 mM of DTT, 1 mM of NAD(P), and five to six concentrations within the range of 10-100 nM of each ALDH and 0.1-80 μM of each probe were selected, mixed in Tris buffer (100 mM, pH 7.5), and reacted for five minutes at 37° C.; an equal amount of acetonitrile was added, and the reaction was stopped. Detection of the aldehyde-form/carboxylic acid-form probes was carried out using the same method as described above by UPLC/MS/MS. Km and Kcat were calculated by fitting the reaction rate at each probe concentration obtained to the Michaelis-Menten equation. A Kaleida Graph ver. 4.1 (Hulinks, Inc.) was used in fitting."}, "ALDH3A1": {"target": "T2, ALDH3A1 (Homo sapiens, UniProt P30838)", "T2 construct": "purchased", "T2 sequence (P30838 1-453)": "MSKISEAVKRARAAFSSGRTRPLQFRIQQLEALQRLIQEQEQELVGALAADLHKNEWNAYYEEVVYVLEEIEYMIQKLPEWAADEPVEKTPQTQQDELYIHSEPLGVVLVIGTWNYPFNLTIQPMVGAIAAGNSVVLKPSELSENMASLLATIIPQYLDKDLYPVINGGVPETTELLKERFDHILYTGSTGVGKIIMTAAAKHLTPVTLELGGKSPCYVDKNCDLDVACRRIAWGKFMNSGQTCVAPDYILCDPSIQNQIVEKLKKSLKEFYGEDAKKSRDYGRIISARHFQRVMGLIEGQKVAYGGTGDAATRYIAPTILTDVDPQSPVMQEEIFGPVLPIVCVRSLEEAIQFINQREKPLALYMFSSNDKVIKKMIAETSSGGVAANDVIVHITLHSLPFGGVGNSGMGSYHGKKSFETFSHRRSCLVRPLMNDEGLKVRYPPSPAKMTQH", "assay": "Reactivity of probes to recombinant ALDH3A1 (UPLC/MS/MS)", "type": "biochemical", "conditions": "10-100 nM ALDH, 10-80 μM compound, Tris buffer pH 7.5, 30 minutes at 37° C., ◯/X not defined by a legend", "experimental": "as §1, with “formate/water.” for “formate/water. An aldehyde-form and carboxylic acid-form probe were detected by the absorbance at a wavelength of 504 nm, and m/z of the MS spectrum at each peak was confirmed to agree with the expected m/z.”"}, "[1]": {"assay": "HPLC (LC/MS) retention time as measure of hydrophilicity / membrane permeability", "type": "physicochemical", "conditions": "C18 column, 20% B 2.5 min, 20%-->100% B 5 min, 500 μL/min, neutral conditions, mean±SD of three tests", "experimental": "In the present invention, it is preferable to use the retention time on an HPLC chromatogram as the measure of hydrophilicity.\nHPLC conditions: taking solvent A to be 0.01 M ammonium formate/water and solvent B to be 80% acetonitrile 0.01 M ammonium formate/water, chromatography is carried out under conditions of 20% solvent B for 2.5 minutes followed by a 5-minute linear gradient of solvent B from 20% to 100% (flow rate 500 μL/min).\nA C18 column (HP 3 μm, inner diameter: 2.1 mm, length: 150 mm, GL Science), for example, can be used suitably as the column.\nThe water solubility was verified by LC/MS under neutral conditions to compare the membrane permeability of the five probes produced above and ALDEFLUOR. The reaction was stopped after advancing the reaction to the point that each probe was present as both a carboxylic acid form and an aldehyde form using a suitable isoform and concentration of ALDH, and analysis was conducted by LC/MS (Agilent 1200/6130 quadrupole LC/MS system). A C18 column (HP 3 μm, inner diameter: 2.1 mm, length: 150 mm, GL Science) was used as the column. HPLC chromatograms were carried out by 20% B for 2.5 minutes followed by a five-minute linear gradient (flow rate: 500 μL/min) from 20% to 100% B, taking solvent A to be 0.01 M ammonium formate/water and solvent B to be 80% acetonitrile 0.01 M ammonium formate/water. The probe containing BODIPY was detected by the absorbance at a wavelength of 504 nm and the probe containing TG at a wavelength of 495 nm, and m/z of the MS spectrum at each peak was confirmed to agree with the expected m/z. Three independent tests were run, and the mean±SD was calculated. […] Given that imaging of probe 1 was not successful, there was thought to be a threshold at which the membrane permeability changes rapidly between this 6.741 minutes and 7.098 minutes (band in FIG. 2)."}}}
{"substance": "N-(4-formylbenzyl)-3-(1,3-dimethyl-4,4-difluoro-4-bora-3a,4a-diaza-s-indacen-5-yl)-propionamide [Probe 1]", "values": [{"measurement": "Kcat ALDH1A3", "setting": "ALDH1A3", "result": "0.029 ± 0.0015", "unit": "s⁻¹"}, {"measurement": "Km", "setting": "ALDH1A3", "result": "1.64 ± 0.49", "unit": "µM"}, {"measurement": "Reactivity to ALDH3A1", "setting": "ALDH3A1", "result": "◯"}, {"measurement": "Reactivity to ALDH3A1", "setting": "ALDH3A1; listed as Compound 1", "result": "reacted with all three of the isoforms tested"}, {"measurement": "Retention Time, Aldehyde form", "setting": "[1]", "result": "8.874 ± 0.000", "unit": "min"}, {"measurement": "Retention Time, carboxylate (carboxylic acid form)", "setting": "[1]", "result": "7.098 ± 0.001", "unit": "min"}, {"measurement": "Retention Time, carboxylate (carboxylic acid form)", "setting": "[1]; listed as probe 1", "result": 7.098, "unit": "min"}]}
